The text below walks through data of paper PMC12648627, “Structural and functional characterization of a metagenomically derived γ‐type carbonic anhydrase and its engineering into a hyperthermostable esterase” (Protein Science : A Publication of the Protein Society, 2025).

In assay [1] the target is T1, γ-CaCAmut (Caloramator australicus, UniProt G0V3M6, V46E/T67E/G68E/Y159N, form not given).
T1 construct: gene CAAU_0066
Description: spectrophotometric p-nitrophenol release at […] nm. The class given is biochemical. Conditions: 0.1 M KH2PO4, pH 8.0, 25°C; 0.4-3.5 mM p-NPA; esterase activity.

Assay [2] deals with T1, γ-CaCAmut. Conditions: pNPA as substrate, 25°C; 1 mM inhibitor.

T1 sequence (G0V3M6 1-167 G68E/T67E/V46E/Y159N limits assumed): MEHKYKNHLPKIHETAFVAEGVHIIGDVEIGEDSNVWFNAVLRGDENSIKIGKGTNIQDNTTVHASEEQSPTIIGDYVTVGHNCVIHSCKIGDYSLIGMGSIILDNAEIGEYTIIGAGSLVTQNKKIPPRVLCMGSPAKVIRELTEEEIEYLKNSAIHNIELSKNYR

Broadly, the Km is the substrate concentration at which the rate is half of its maximum. As to `CC(=O)Oc1ccc([N+](=O)[O-])cc1` [p-nitrophenyl acetate], the Km in assay [1] came to 960 ± 50 µM.
For the compound `Nc1ccc(S(N)(=O)=O)cc1` [sulfanilamide], the “% inhibition at 1 mM” value in assay [2] was “Inhibition of γ‐CaCAmut by three common diagnostic CA inhibitors (sulfanilamide, azide, and EDTA)”.
